Assay results as given in US8785499B2 (priority 2009, dated 2014).

Biological target: baNadD (Bacillus anthracis, UniProt C3L5T6)
Experiment: biochemical
Format: biochemical

Chain of baNadD (C3L5T6 whole entry, looked up): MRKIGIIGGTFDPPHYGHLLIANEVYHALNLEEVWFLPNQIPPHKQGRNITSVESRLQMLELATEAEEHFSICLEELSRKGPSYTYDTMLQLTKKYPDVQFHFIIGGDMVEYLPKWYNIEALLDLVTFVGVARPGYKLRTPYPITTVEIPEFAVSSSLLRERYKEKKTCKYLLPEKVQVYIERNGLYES

| Structure (SMILES) | […]. anthracis |
| --- | --- |
| CC(=O)c1ccc(NC(=O)CC(NCc2cccnc2)C(=O)O)cc1 (centres unmarked) [compound 127] | 59% |
| CC(=O)Nc1ccc(NC(=O)CSc2nccc(O)n2)cc1 [compound 128] | 0% |
| O=C(CSc1nnc[nH]1)Nc1ccc(I)cc1 [compound 129] | 0% |
| O=C(O)c1ccccc1S(=O)(=O)c1ccccc1C(=O)O [compound 130] | 28% |
| O=C(O)/C=C\C(=O)Nc1ccc(Br)c(Cl)c1 [compound 131] | 0% |
| O=C(O)c1ccccc1NC1=NS(=O)(=O)c2ccccc21 [compound 132] | 25% |
| O=C(O)c1cc(C(=O)O)cc(N2C(=O)c3ccc(C(=O)O)cc3C2=O)c1 [compound 134] | 0% |
| O=c1[nH]c2ccc(/N=C/c3cc(Cl)ccc3O)cc2[nH]1 [compound 135] | 10% |
| NC(=S)NNC(=O)c1ccccc1C(=O)O [compound 136] | 64% |
| O=C(Nc1ncccc1Cl)c1ccc(Br)cc1 [compound 137] | 7% |
| COc1ccc(-c2csc(N)n2)cc1[N+](=O)[O-] [compound 138] | 54% |
| COc1ccc(S(=O)(=O)Nc2ccc(C(N)=O)cc2)cc1Cl [compound 139] | 0% |
| NS(=O)(=O)c1ccc2nc(NC(=O)CCc3ccccc3)sc2c1 [compound 140] | 0% |
| O=C(O)c1ccc(-n2cccn2)cc1 [compound 141] | 17% |
| O=S(=O)(NCCCc1ccccc1)c1cccc2nsnc12 [compound 142] | 0% |
| c1ccc2[nH]c(SCc3cn4ccsc4n3)nc2c1 [compound 143] | 2% |
| CC1=C(C)CC(C(=O)Nc2ccc(I)cc2)C(C(=O)O)C1 (centres unmarked) [compound 144] | 65% |
| O=C(Cn1cnc2ccccc2c1=O)Nc1nccs1 [compound 145] | 0% |
| Cc1nnc(SCC(=O)Nc2ccc(Cl)cn2)[nH]c1=O [compound 146] | 11% |

| Structure (SMILES) | […]. anthracis |
| --- | --- |
| Cc1ccc(C(=O)N/N=C/c2ccc(O)c(I)c2)cn1 [compound 147] | 12% |
| O=C(O)/C=C/c1ccncc1 [compound 148] | 4% |
| CCS(=O)(=O)n1nc(-c2ccc(OC)cc2)nc1N [compound 149] | 0% |
| CSc1ccc(CNc2ccc(S(N)(=O)=O)cc2)cc1 [compound 150] | 0% |
| O=C(/C=C/c1ccoc1)c1ccccc1O [compound 151] | 0% |
| O=C(O)C1C2C=CC(C2)C1C(=O)Nc1ccc(Cl)c(Cl)c1 (centres unmarked) [compound 152] | 0% |
| O=C(O)c1cc(NS(=O)(=O)c2cccc3nsnc23)cc(C(=O)O)c1 [compound 153] | 0% |
| O=C(O)CNC(=S)N(Cc1ccccc1)Cc1cccs1 [compound 154] | 0% |
| Cc1ccc2nc(NC(=S)NC(=O)c3cccs3)sc2c1 [compound 155] | 26% |
| O=C(O)c1ccccc1C(=O)c1cccs1 [compound 156] | 22% |
| NS(=O)(=O)c1ccc(NCc2cccc(Cl)c2Cl)cc1 [compound 157] | 0% |
| CSc1sc(C(=O)O)c(I)c1S(=O)(=O)C(C)C [compound 158] | 36% |
| O=C(O)C1=C(c2cc([N+](=O)[O-])ccc2O)N=S=N1 [compound 159] | 1% |
| Cc1ccc(-c2nnc(SCC(=O)O)[nH]2)cc1 [compound 160] | 0% |
| N=C(NNS(=O)(=O)c1ccccc1)c1ccccn1 [compound 161] | 68% |
| Cc1ccc(S(=O)(=O)/N=C(\N)c2ccc(F)cc2)cc1 [compound 162] | 0% |
| CS(=O)(=O)N(CC(=O)Nc1ccccc1Br)c1ccc(Cl)cc1 [compound 163] | 54% |
| Nc1cc(=O)[nH]c(SCC(=O)Nc2ccc(S(N)(=O)=O)cc2)n1 [compound 164] | 32% |

Biological target: ecNadD (Escherichia coli (strain K12), UniProt P0A752)
Experiment: biochemical
Format: biochemical

| Structure (SMILES) | […]. coli |
| --- | --- |
| CC(=O)c1ccc(NC(=O)CC(NCc2cccnc2)C(=O)O)cc1 (centres unmarked) [compound 127] | 7% |
| CC(=O)Nc1ccc(NC(=O)CSc2nccc(O)n2)cc1 [compound 128] | 7% |
| O=C(CSc1nnc[nH]1)Nc1ccc(I)cc1 [compound 129] | 7% |
| O=C(O)c1ccccc1S(=O)(=O)c1ccccc1C(=O)O [compound 130] | 7% |
| O=C(O)/C=C\C(=O)Nc1ccc(Br)c(Cl)c1 [compound 131] | 7% |
| O=C(O)c1ccccc1NC1=NS(=O)(=O)c2ccccc21 [compound 132] | 6% |
| O=C(O)c1cc(C(=O)O)cc(N2C(=O)c3ccc(C(=O)O)cc3C2=O)c1 [compound 134] | 6% |
| O=c1[nH]c2ccc(/N=C/c3cc(Cl)ccc3O)cc2[nH]1 [compound 135] | 6% |
| NC(=S)NNC(=O)c1ccccc1C(=O)O [compound 136] | 6% |
| O=C(Nc1ncccc1Cl)c1ccc(Br)cc1 [compound 137] | 6% |
| COc1ccc(-c2csc(N)n2)cc1[N+](=O)[O-] [compound 138] | 6% |
| COc1ccc(S(=O)(=O)Nc2ccc(C(N)=O)cc2)cc1Cl [compound 139] | 6% |
| NS(=O)(=O)c1ccc2nc(NC(=O)CCc3ccccc3)sc2c1 [compound 140] | 6% |
| O=C(O)c1ccc(-n2cccn2)cc1 [compound 141] | 6% |
| O=S(=O)(NCCCc1ccccc1)c1cccc2nsnc12 [compound 142] | 6% |
| c1ccc2[nH]c(SCc3cn4ccsc4n3)nc2c1 [compound 143] | 6% |
| CC1=C(C)CC(C(=O)Nc2ccc(I)cc2)C(C(=O)O)C1 (centres unmarked) [compound 144] | 6% |
| O=C(Cn1cnc2ccccc2c1=O)Nc1nccs1 [compound 145] | 6% |
| Cc1nnc(SCC(=O)Nc2ccc(Cl)cn2)[nH]c1=O [compound 146] | 5% |

| Structure (SMILES) | […]. coli |
| --- | --- |
| Cc1ccc(C(=O)N/N=C/c2ccc(O)c(I)c2)cn1 [compound 147] | 5% |
| O=C(O)/C=C/c1ccncc1 [compound 148] | 5% |
| CCS(=O)(=O)n1nc(-c2ccc(OC)cc2)nc1N [compound 149] | 5% |
| CSc1ccc(CNc2ccc(S(N)(=O)=O)cc2)cc1 [compound 150] | 5% |
| O=C(/C=C/c1ccoc1)c1ccccc1O [compound 151] | 5% |
| O=C(O)C1C2C=CC(C2)C1C(=O)Nc1ccc(Cl)c(Cl)c1 (centres unmarked) [compound 152] | 5% |
| O=C(O)c1cc(NS(=O)(=O)c2cccc3nsnc23)cc(C(=O)O)c1 [compound 153] | 5% |
| O=C(O)CNC(=S)N(Cc1ccccc1)Cc1cccs1 [compound 154] | 5% |
| Cc1ccc2nc(NC(=S)NC(=O)c3cccs3)sc2c1 [compound 155] | 5% |
| O=C(O)c1ccccc1C(=O)c1cccs1 [compound 156] | 5% |
| NS(=O)(=O)c1ccc(NCc2cccc(Cl)c2Cl)cc1 [compound 157] | 5% |
| CSc1sc(C(=O)O)c(I)c1S(=O)(=O)C(C)C [compound 158] | 4% |
| O=C(O)C1=C(c2cc([N+](=O)[O-])ccc2O)N=S=N1 [compound 159] | 4% |
| Cc1ccc(-c2nnc(SCC(=O)O)[nH]2)cc1 [compound 160] | 4% |
| N=C(NNS(=O)(=O)c1ccccc1)c1ccccn1 [compound 161] | 4% |
| Cc1ccc(S(=O)(=O)/N=C(\N)c2ccc(F)cc2)cc1 [compound 162] | 4% |
| CS(=O)(=O)N(CC(=O)Nc1ccccc1Br)c1ccc(Cl)cc1 [compound 163] | 4% |
| Nc1cc(=O)[nH]c(SCC(=O)Nc2ccc(S(N)(=O)=O)cc2)n1 [compound 164] | 4% |
